The subject of data set [1] is HBV. Kind of data set: Anti-HBV activity, HepG2.117 inducibly HBV producing cell line (Tet-off), intracellular HBV DNA by realtime PCR. Type of data set: cell-based. To be noted: Hepatitis B virus, HepG2.117, 72 h.
The test system of data set [2] is HBV. The data set is described as follows: Anti-HBV activity, HepG2.2.15 stable transfected cell line, HBV DNA from secreted virions by realtime PCR. In kind it is cell-based. Particulars: Hepatitis B virus, HepG2.2.15, 144 h.
Data set [3] is described as follows: Cytotoxicity in HepG2 cells, Resazurin viability assay. To be noted: human. A general note: The colour change of resazurin is a common sign of viable cells or microbes.
Where [4] appears, read: HepG2.117 cells, 3 days of treatment, intracellular HBV DNA, read-out: HepG2 117 EC50.
[5] abbreviates: HepG2.2.15 cells, 6 days of treatment, HBV DNA from secreted virions, read-out: HepG2 2.15 EC50.
[6] abbreviates: HepG2 cells, HepG2 4 days CC50 (μM), incubated for 4 days, Resazurin assay.

In general, EC50 refers to the concentration that produces a half-maximal response. One may read the CC50 as the concentration that lowers cell viability or growth by half.

Structures are written as SMILES.

With `CC[C@@H](C)NS(=O)(=O)c1cc(C(=O)Nc2cc(F)c(F)c(Br)c2)n(C)c1` [Compound 47, N-(3-bromo-4,5-difluoro-phenyl)-1-methyl-4-[[(1R)-1-methylpropyl]-sulfamoyl]pyrrole-2-carboxamide], the EC50 with HBV [1] (setting [4]) and with HBV [2] (setting [5]) was 0.1 µM throughout. The same compound yielded a CC50 at 4 days in data set [3] (setting [6]) of more than 25 µM.

Take `Cn1cc(S(=O)(=O)NC2(C)COC2)cc1C(=O)Nc1cc(F)c(F)c(Br)c1` [Compound 48, N-(3-bromo-4,5-difluoro-phenyl)-1-methyl-4-[(3-methyloxetan-3-yl)-sulfamoyl]pyrrole-2-carboxamide]: the EC50 in the data set on HBV [1] (setting [4]) came out at 0.06 µM; with HBV [2] (setting [5]) it was 0.05 µM. The CC50 at 4 days in data set [3] (setting [6]) was more than 25 µM.

For `COC(=O)C(C)(C)NS(=O)(=O)c1cc(C(=O)Nc2ccc(F)c(C)c2)n(C)c1` [Compound 49, methyl 2-[[5-[(4-fluoro-3-methyl-phenyl)carbamoyl]-1-methyl-pyrrol-3-yl]sulfonylamino]-2-methyl-propanoate], the EC50 in the data set with HBV [1] (setting [4]) came out at 0.02 µM; in the data set with HBV [2] (setting [5]), 0.07 µM. The CC50 at 4 days in data set [3] (setting [6]) is more than 25 µM.

As for `Cn1cc(S(=O)(=O)NC2(C)COC2)cc1C(=O)Nc1ccc(F)c(C#N)c1` [Compound 50, N-(3-cyano-4-fluorophenyl)-1-methyl-4-[(3-methyloxetan-3-yl)sulfamoyl]-1H-pyrrole-2-carboxamide], the EC50 was 0.05 µM in the data set on HBV [1] (setting [4]) and 0.07 µM with HBV [2] (setting [5]). The compound further yielded a half-maximal cytotoxic concentration (CC50) at 4 days in data set [3] (setting [6]) of more than 25 µM.

As for `Cn1cc(S(=O)(=O)NC2(C)COC2)cc1C(=O)Nc1ccc(C#N)c(C(F)(F)F)c1` [Compound 51, N-[4-cyano-3-(trifluoromethyl)phenyl]-1-methyl-4-[(3-methyloxetan-3-yl)-sulfamoyl]-1H-pyrrole-2-carboxamide], the EC50 in the data set on HBV [1] (read-out: HepG2 117 EC50 (μM)) and in the data set on HBV [2] (read-out: HepG2 2.15 EC50 (μM)) was more than 1 µM throughout. The compound also yielded a CC50 at 4 days in data set [3] of more than 25 µM.

Turning to `CC(C)NS(=O)(=O)c1cc(C(=O)Nc2cc(F)c(F)c(C#N)c2)n(C)c1` [Compound 52, N-(3-cyano-4,5-difluoro-phenyl)-4-(isopropylsulfamoyl)-1-methyl-pyrrole-2-carboxamide], the values for the EC50 in the data set with HBV [1] (setting [4]) and in the data set on HBV [2] (setting [5]) were 0.33 µM and 0.26 µM, respectively. In data set [3] (setting [6]), this compound gave a CC50 at 4 days of more than 25 µM.

As to `Cn1cc(S(=O)(=O)NC(C)(C)C)cc1C(=O)Nc1cc(F)cc(C#N)c1` [Compound 53, 4-(tert-butylsulfamoyl)-N-(3-cyano-5-fluoro-phenyl)-1-methyl-pyrrole-2-carboxamide], the EC50 came out at 0.18 µM in the data set on HBV [1] (setting [4]) and 0.26 µM in the data set on HBV [2] (setting [5]). The CC50 at 4 days in data set [3] (setting [6]) was more than 25 µM.

Regarding `Cn1cc(S(=O)(=O)NC2(C)COC2)cc1C(=O)Nc1cc(F)cc(C#N)c1` [Compound 54, N-(3-cyano-5-fluoro-phenyl)-1-methyl-4-[(3-methyloxetan-3-yl)-sulfamoyl]pyrrole-2-carboxamide], the EC50 in the data set with HBV [1] (setting [4]) was 0.25 µM; in the data set with HBV [2] (setting [5]) it was 0.2 µM. This compound yielded a CC50 at 4 days in data set [3] (setting [6]) of more than 25 µM.

Consider `Cn1cc(S(=O)(=O)NC2(C)COC2)cc1C(=O)Nc1cccc(C#N)c1` [Compound 55, N-(3-cyanophenyl)-1-methyl-4-[(3-methyloxetan-3-yl)sulfamoyl]pyrrole-2-carboxamide], for which the values for the EC50 in the data set on HBV [1] (setting [4]) and in the data set on HBV [2] (setting [5]) were 0.11 µM and 0.21 µM, respectively. The compound further yielded a CC50 at 4 days in data set [3] (setting [6]) of more than 25 µM.

As for `[2H]c1cc(F)c(C)c([2H])c1NC(=O)c1cc(S(=O)(=O)NC2(C)COC2)cn1C` [Compound 56, N-(2,6-dideuterio-4-fluoro-3-methyl-phenyl)-1-methyl-4-[(3-methyloxetan-3-yl)sulfamoyl]pyrrole-2-carboxamide], the EC50 with HBV [1] (setting [4]) was less than 0.02 µM; with HBV [2] (setting [5]), 0.02 µM. The compound also came in with a CC50 at 4 days in data set [3] (setting [6]) of more than 25 µM.

Consider `CC(C)NS(=O)(=O)c1cc(C(=O)Nc2cc(F)c(F)c(Cl)c2)n(C)c1` [Compound 57, N-(3-chloro-4,5-difluoro-phenyl)-4-(isopropylsulfamoyl)-1-methyl-pyrrole-2-carboxamide], for which the EC50 in the data set with HBV [1] (setting [4]) is 0.05 µM; in the data set on HBV [2] (setting [5]) it was 0.06 µM. In addition, the CC50 at 4 days in data set [3] (setting [6]) is more than 25 µM.

For `Cn1cc(S(=O)(=O)NC(C)(C)C)cc1C(=O)Nc1cc(F)c(F)c(Cl)c1` [Compound 58, 4-(tert-butylsulfamoyl)-N-(3-chloro-4,5-difluoro-phenyl)-1-methyl-pyrrole-2-carboxamide], the EC50 in the data set on HBV [1] (setting [4]) was found to be 0.06 µM; in the data set on HBV [2] (setting [5]) it was 0.09 µM. The compound also had a CC50 at 4 days in data set [3] (setting [6]) of more than 25 µM.

With `Cn1cc(S(=O)(=O)NC2(C)COC2)cc1C(=O)Nc1cc(F)c(F)c(Cl)c1` [Compound 59, N-(3-chloro-4,5-difluoro-phenyl)-1-methyl-4-[(3-methyloxetan-3-yl)-sulfamoyl]pyrrole-2-carboxamide], the EC50 in the data set on HBV [1] (setting [4]) and in the data set on HBV [2] (setting [5]) was 0.03 µM throughout. Besides, the CC50 at 4 days in data set [3] (setting [6]) was more than 25 µM.

As to `C[C@@H](NS(=O)(=O)c1cc(C(=O)Nc2cc(F)c(F)c(Cl)c2)n(C)c1)C(F)(F)F` [Compound 60, N-(3-chloro-4,5-difluoro-phenyl)-1-methyl-4-[[(1R)-2,2,2-trifluoro-1-methyl-ethyl]sulfamoyl]pyrrole-2-carboxamide], the EC50 stood at 0.03 µM in the data set with HBV [1] (setting [4]) and 0.02 µM in the data set with HBV [2] (setting [5]). Further, half-maximal cytotoxicity in data set [3] (setting [6]) (CC50 at 4 days) was put at 24.1 µM.

In the case of `CNC(=O)C(C)(C)NS(=O)(=O)c1cc(C(=O)Nc2ccc(F)c(C)c2)n(C)c1` [Compound 62, 4-[[1,1-dimethyl-2-(methylamino)-2-oxo-ethyl]sulfamoyl]-N-(4-fluoro-3-methyl-phenyl)-1-methyl-pyrrole-2-carboxamide], the EC50 in the data set on HBV [1] (setting [4]) is 0.14 µM; with HBV [2] (setting [5]), 0.27 µM. In data set [3] (setting [6]), this compound registered a half-maximal cytotoxic concentration (CC50) at 4 days of more than 25 µM.

Regarding `Cc1cc(NC(=O)c2cc(S(=O)(=O)NC(C)(C)C(=O)N(C)C)cn2C)ccc1F` [Compound 63, 4-[[2-(dimethylamino)-1,1-dimethyl-2-oxo-ethyl]sulfamoyl]-N-(4-fluoro-3-methyl-phenyl)-1-methyl-pyrrole-2-carboxamide], the EC50 came out at 0.04 µM in the data set with HBV [1] (setting [4]) and 0.06 µM with HBV [2] (setting [5]). Also, the CC50 at 4 days in data set [3] (setting [6]) was more than 25 µM.

As for `Cc1cc(NC(=O)c2cc(S(=O)(=O)NC(C)(C)C(N)=O)cn2C)ccc1F` [Compound 64, 4-[(2-amino-1,1-dimethyl-2-oxo-ethyl)sulfamoyl]-N-(4-fluoro-3-methyl-phenyl)-1-methyl-pyrrole-2-carboxamide], the figures for the EC50 in the data set on HBV [1] (setting [4]) and with HBV [2] (setting [5]) were 0.05 µM and 0.13 µM, respectively. Moreover, the CC50 at 4 days in data set [3] (setting [6]) was more than 25 µM.

As to `Cn1cc(S(=O)(=O)NC2(C)CC(F)(F)C2)cc1C(=O)Nc1cc(F)c(F)c(Cl)c1` [Compound 65, N-(3-chloro-4,5-difluoro-phenyl)-4-[(3,3-difluoro-1-methyl-cyclo-butyl)sulfamoyl]-1-methyl-pyrrole-2-carboxamide], the EC50 with HBV [1] (setting [4]) and in the data set with HBV [2] (setting [5]) was 0.01 µM throughout. The compound further displayed a CC50 at 4 days in data set [3] (setting [6]) of more than 25 µM.

Regarding `CCC(C)(C)NS(=O)(=O)c1cc(C(=O)Nc2cc(F)c(F)c(Cl)c2)n(C)c1` [Compound 66, N-(3-chloro-4,5-difluoro-phenyl)-4-(1,1-dimethylpropylsulfamoyl)-1-methyl-pyrrole-2-carboxamide], the EC50 in the data set with HBV [1] (setting [4]) and in the data set on HBV [2] (setting [5]) was 0.03 µM in each case. Moreover, in data set [3] (setting [6]), the CC50 at 4 days is more than 25 µM.

`[2H]c1cc(F)c(C)c([2H])c1NC(=O)c1cc(S(=O)(=O)NC(C)(C)C)cn1C` [Compound 67, 4-(tert-butylsulfamoyl)-N-(2,6-dideuterio-4-fluoro-3-methyl-phenyl)-1-methyl-pyrrole-2-carboxamide]: the figures for the EC50 in the data set with HBV [1] (setting [4]) and in the data set with HBV [2] (setting [5]) were 0.03 µM and 0.02 µM, respectively. Besides, the CC50 at 4 days in data set [3] (setting [6]) was more than 25 µM.

As to `Cn1cc(S(=O)(=O)NC(C)(C)C)cc1C(=O)Nc1cc(F)c(F)c(F)c1` [Compound 68, 4-(tert-butylsulfamoyl)-1-methyl-N-(3,4,5-trifluorophenyl)pyrrole-2-carboxamide], the EC50 in the data set on HBV [1] (setting [4]) and in the data set on HBV [2] (setting [5]) was 0.07 µM each time. The compound also yielded a CC50 at 4 days in data set [3] (setting [6]) of more than 25 µM.

For `[2H]C([2H])([2H])C(NS(=O)(=O)c1cc(C(=O)Nc2ccc(F)c(C)c2)n(C)c1)(C([2H])([2H])[2H])C([2H])([2H])[2H]` [Compound 69, N-(4-fluoro-3-methyl-phenyl)-1-methyl-4-[[2,2,2-trideuterio-1,1-bis(trideuteriomethyl)ethyl]sulfamoyl]pyrrole-2-carboxamide], the EC50 in the data set with HBV [1] (setting [4]) is 0.07 µM; with HBV [2] (setting [5]) it was 0.03 µM. This compound also returned a CC50 at 4 days in data set [3] (setting [6]) of more than 25 µM.

Regarding `[2H]c1cc(F)c(C)c([2H])c1NC(=O)c1cc(S(=O)(=O)NC(C([2H])([2H])[2H])(C([2H])([2H])[2H])C([2H])([2H])[2H])cn1C` [Compound 70, N-(2,6-dideuterio-4-fluoro-3-methyl-phenyl)-1-methyl-4-[[2,2,2-trideuterio-1,1-bis(trideuteriomethyl)ethyl]sulfamoyl]pyrrole-2-carboxamide], the EC50 in the data set with HBV [1] (setting [4]) came to 0.04 µM; in the data set on HBV [2] (setting [5]) it was 0.02 µM. The compound also yielded a CC50 at 4 days in data set [3] (setting [6]) of more than 25 µM.

Take `[2H]c1c(F)c(F)c(F)c([2H])c1NC(=O)c1cc(S(=O)(=O)NC(C)(C)C)cn1C` [Compound 71, 4-(tert-butylsulfamoyl)-N-(2,6-dideuterio-3,4,5-trifluoro-phenyl)-1-methyl-pyrrole-2-carboxamide]: the results for the EC50 with HBV [1] (setting [4]) and in the data set with HBV [2] (setting [5]) were 0.13 µM and 0.1 µM, respectively. The compound further gave a CC50 at 4 days in data set [3] (setting [6]) of more than 25 µM.

Consider `Cn1cc(S(=O)(=O)NC2(C(F)(F)F)CC2)cc1C(=O)Nc1cc(F)c(F)c(Cl)c1` [Compound 72, N-(3-chloro-4,5-difluoro-phenyl)-1-methyl-4-[[1-(trifluoromethyl)-cyclopropyl]sulfamoyl]pyrrole-2-carboxamide], for which the EC50 with HBV [1] (setting [4]) and in the data set with HBV [2] (setting [5]) was 0.01 µM throughout. The CC50 at 4 days in data set [3] (setting [6]) was more than 25 µM.

The values above are taken from patent publication US9884818B2, “Sulphamoylpyrrolamide derivatives and the use thereof as medicaments for the treatment of hepatitis B” (Janssen Sciences Ireland UC, priority 2013, dated 2018).
